Where two headings read alike, the source gives them in different places.
Experiments:
CbcWV with CaiXPAO1 = format: cell-based, Pseudomonas aeruginosa; settings: MKH13; pNcbcWV, pT-PA5388; SBP CaiXPAO1; substrate 10 μM; single replication
[1] = tested on: CbcXWV from P. aeruginosa PAO1; format: cell-based, Pseudomonas aeruginosa; settings: MKH13, pCbcPAO1; radiolabelled substrate 1 mM; mean (SE), n = 10
CbcWV with BetXPAO1 = format: cell-based, Pseudomonas aeruginosa; settings: MKH13; pNcbcWV, pT-PA3236; SBP BetXPAO1; substrate 10 μM; single replication
CbcX and CaiX with CbcWV = format: cell-based, Pseudomonas aeruginosa; settings: MKH13, pNcbcXWV, pT-PA5388, SBPs CbcX/CaiX, competitor 1 mM
CbcX with CbcWV = CbcX with CbcWV (Pseudomonas aeruginosa, UniProt Q9HTI6); experiment: Competitive uptake, MKH13 expressing cbcXWV; format: cell-based; settings: MKH13, pNcbcXWV, SBP CbcX, competitor 1 mM
CbcXWV from DC3000 = format: cell-based, Pseudomonas syringae pv. tomato; settings: Acella, pET-cbcDC3000; 1 mM IPTG; substrate 1 mM; mean (SE), n = 10
[2] = tested on: P. syringae BT-derived mutants; format: cell-based, Pseudomonas syringae pv. syringae; settings: pN
CaiX with CbcWV = format: cell-based, Pseudomonas aeruginosa; settings: MKH13; pNcbcWV, pT-PA5388; SBP CaiX; [^14C]carnitine 10 μM; competitor 1 mM
CbcXWV from B728a = format: cell-based, Pseudomonas syringae pv. syringae; settings: Acella, pET-cbcB728a; 1 mM IPTG; substrate 1 mM; single colony
[3] = tested on: E. coli strains MKH13 and Acella; experiment: Total uptake by E. coli strains carrying empty vector; format: cell-based, Escherichia coli
[4] = tested on: Cbc core transporter CbcWV; format: cell-based, Pseudomonas aeruginosa; settings: MKH13, pNcbcWV, SBP None, substrate 10 μM, single replication
[5] = tested on: cbcXWV from PAO1 in QAC transporter-deficient BT strain; format: cell-based, Pseudomonas aeruginosa; settings: BT(pCbcPAO1), unlabelled competitor 0.5 mM, 10 min
[6] = tested on: S. meliloti Cho transporter ChoXWV; format: cell-based, Sinorhizobium meliloti; settings: MKH13; pNchoXWV, Plasmid 2 None; SBP ChoX; substrate 10 μM; single replication
[7] = tested on: S. meliloti ChoXWV transporter; format: cell-based, Sinorhizobium meliloti
[8] = tested on: cbcXWV from B728a in QAC transporter-deficient BT strain; format: cell-based, Pseudomonas syringae pv. syringae; settings: BT(pCbcB728a), unlabelled competitor 0.5 mM, 10 min
CbcWV with BetXDC3000 = format: cell-based, Pseudomonas syringae pv. tomato; settings: MKH13; pNcbcWV, pT-D3758; SBP BetXDC3000; substrate 10 μM; single replication
CbcWV with BetXB728a = format: cell-based, Pseudomonas syringae pv. syringae; settings: MKH13; pNcbcWV, pT-B3758; SBP BetXB728a; substrate 10 μM; single replication
ChoXWV = target: T1, ChoXWV (Sinorhizobium meliloti, UniProt Q92N37); experiment: Competitive uptake, MKH13 expressing choXWV; format: cell-based; settings: pNchoXWV, SBP ChoX, [^14C]choline 10 μM, competitor 1 mM
T1 sequence (Q92N37 28-318): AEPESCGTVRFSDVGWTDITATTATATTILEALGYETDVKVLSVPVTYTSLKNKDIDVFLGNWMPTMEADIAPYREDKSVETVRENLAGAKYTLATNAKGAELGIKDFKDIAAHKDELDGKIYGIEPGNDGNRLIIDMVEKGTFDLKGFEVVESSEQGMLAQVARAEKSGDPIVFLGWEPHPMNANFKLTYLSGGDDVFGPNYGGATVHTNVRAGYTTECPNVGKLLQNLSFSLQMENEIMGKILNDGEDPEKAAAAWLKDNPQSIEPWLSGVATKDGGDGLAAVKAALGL
T1 sequence (Q92N36 1-281 partner): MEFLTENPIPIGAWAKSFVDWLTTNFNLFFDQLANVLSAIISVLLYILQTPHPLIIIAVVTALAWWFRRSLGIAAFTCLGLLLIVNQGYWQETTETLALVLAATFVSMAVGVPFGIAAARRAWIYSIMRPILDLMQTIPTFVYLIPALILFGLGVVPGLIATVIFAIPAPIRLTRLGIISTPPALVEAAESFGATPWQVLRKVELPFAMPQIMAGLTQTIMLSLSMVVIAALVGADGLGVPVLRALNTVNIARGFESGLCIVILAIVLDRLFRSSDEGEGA
T1 sequence (Q92N35 1-349 partner): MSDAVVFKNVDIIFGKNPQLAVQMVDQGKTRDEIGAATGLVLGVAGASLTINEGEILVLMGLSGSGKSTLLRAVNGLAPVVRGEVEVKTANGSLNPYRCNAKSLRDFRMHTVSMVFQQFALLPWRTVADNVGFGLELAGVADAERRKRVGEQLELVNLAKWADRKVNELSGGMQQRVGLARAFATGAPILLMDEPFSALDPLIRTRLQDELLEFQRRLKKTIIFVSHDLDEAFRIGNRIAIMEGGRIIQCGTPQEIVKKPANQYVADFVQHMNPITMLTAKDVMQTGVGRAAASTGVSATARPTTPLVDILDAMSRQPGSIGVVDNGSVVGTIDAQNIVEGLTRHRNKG

For `C[N+](C)(C)CCO` [Choline, choline], the Total uptake (CbcWV with CaiXPAO1) was 0 nmol (mg protein)^−1, the Total uptake [1] was 12.1 (1.1) nmol (mg protein)^−1 and the Total uptake (CbcWV with BetXPAO1) was 0 nmol (mg protein)^−1. For the same compound, the “% inhibition of uptake of substrate by unlabelled competitor” value (“% inhibition of uptake of substrate” below) (CbcX and CaiX with CbcWV; [^14C]betaine 10 μM) was 99%, the “% inhibition of uptake of substrate” value (CbcX and CaiX with CbcWV; [^14C]choline 10 μM) was 96% and the “% inhibition of uptake of substrate” value (CbcX with CbcWV; [^14C]betaine 10 μM) was 99%. The “% inhibition of uptake of substrate” value (CbcX with CbcWV; [^14C]choline 10 μM) was 92%, the Total uptake (CbcXWV from DC3000) was 15.0 (2.4) nmol (mg protein)^−1 and the Total uptake ([2]; host BT0028Ko, substrate 10 μM) was 0.0 nmol (mg protein)^−1. The Total uptake ([2]; host BT0028Ko, substrate 1 mM) was 0 nmol (mg protein)^−1, the Total uptake ([2]; host BT2916Ko, substrate 10 μM, single replication) was 0.0 nmol (mg protein)^−1 and the Total uptake ([2]; host BT2916Ko, substrate 1 mM, single replication) was 0 nmol (mg protein)^−1. For the same compound, the Total uptake ([2]; host BT3758Ko, substrate 10 μM) was 0.0 nmol (mg protein)^−1, the Total uptake ([2]; host BT3758Ko, substrate 1 mM) was 0 nmol (mg protein)^−1 and the “% inhibition of uptake of substrate” value (CaiX with CbcWV) was 5%. For the same compound, the Total uptake (CbcXWV from B728a) was 19.2 nmol (mg protein)^−1, the Total uptake ([3]; Acella, pET15b, 1 mM IPTG, substrate 1 mM, single colony) was 0 nmol (mg protein)^−1 and the Total uptake ([3]; MKH13, pME6041, radiolabelled substrate 1 mM, mean (SE), n = 10) was 0.2 (0.1) nmol (mg protein)^−1. For the same compound, the Total uptake ([4]; Plasmid 2 None) was 0 nmol (mg protein)^−1, the Total uptake ([4]; pTOK2T) was 0 nmol (mg protein)^−1 and the “% inhibition of uptake of [^14C]substrate” value ([5]; [^14C]betaine 5 μM) was −6%. The “% inhibition of uptake of [^14C]substrate” value ([5]; [^14C]carnitine 5 μM) was 77%, the “% inhibition of uptake of [^14C]substrate” value ([5]; [^14C]choline 5 μM) was 84% and the Total uptake [6] was 4.7 nmol (mg protein)^−1. For the same compound, the Total uptake ([7]; pNchoXW, host BT0028Ko, substrate 10 μM, mean (SE), n = 2) was 7.8 (0.07) nmol (mg protein)^−1, the Total uptake ([7]; pNchoXW, host BT0028Ko, substrate 1 mM, mean (SE), n = 2) was 8.5 (1.4) nmol (mg protein)^−1 and the Total uptake ([7]; pNchoXW, host BT3758Ko, substrate 10 μM, mean (SE), n = 3) was 8.6 (1.28) nmol (mg protein)^−1. For the same compound, the Total uptake ([7]; pNchoXW, host BT3758Ko, substrate 1 mM, mean (SE), n = 3) was 7.4 (0.8) nmol (mg protein)^−1, the Total uptake ([7]; pNchoXWV, host BT2916Ko, substrate 10 μM, single replication) was 6.5 nmol (mg protein)^−1 and the Total uptake ([7]; pNchoXWV, host BT2916Ko, substrate 1 mM, single replication) was 6.1 nmol (mg protein)^−1. For the same compound, the “% inhibition of uptake of [^14C]substrate” value ([8]; [^14C]betaine 5 μM) was 3%, the “% inhibition of uptake of [^14C]substrate” value ([8]; [^14C]carnitine 5 μM) was 75% and the “% inhibition of uptake of [^14C]substrate” value ([8]; [^14C]choline 5 μM) was 93%. For the same compound, the Total uptake (CbcWV with BetXDC3000) was 0 nmol (mg protein)^−1, the Total uptake (CbcWV with BetXB728a) was 0 nmol (mg protein)^−1 and the “% inhibition of uptake of substrate” value (ChoXWV) was 98%.
